Laboratory results published in ChEMBL document CHEMBL3272098, “Reactions of 2-acyloxyisobutyryl halides with nucleosides. 7. Synthesis and biological evaluation of some 2,2'-anhydro-1(3',5'-di-O-acyl-beta-D-arabinofuranosyl)cytosine hydrochlorides” (J Med Chem, 1976).
Active and inactive are the calls of the source. No cut-off for these calls is given here.

Legend:
[1] = system: L1210; test: Antitumor activity against mouse L1210 cells allografted in po dosed BDF1 mouse administered 24 hrs post-implantation; format: functional, organism-based
[2] = system: unidentified influenza virus; test: Antiviral activity against Influenza virus Ao/WNS infected in monkey LLC-MK2 cells after 5 days by pulp disk diffusion assay; format: functional, organism-based
[3] = system: Vaccinia virus; test: Antiviral activity against Vaccinia virus IHD infected in African green monkey BGM cells after 6 days by plaque reduction assay; format: functional; conditions: Orthopoxvirus vaccinia, 144 h, read-out: ED50 (the source's name)
[4] = system: Herpesviridae sp.; test: Antiviral activity against Herpes simplex virus HF infected in African green monkey BGM cells after 6 days by plaque reduction assay; format: functional; conditions: 144 h, read-out: ED50 (the source's name)
[5] = system: HeLa; test: Cytotoxicity against human HeLa cells after 48 hrs by Coulter counting analysis; format: functional; conditions: read-out: ED50 (the source's name)
[6] = system: BGM; test: Antiviral activity against Poliovirus type 1 Mahoney infected in African green monkey BGM cells after 5 days by pulp disk diffusion assay; format: functional, cell-based; conditions: Human poliovirus 1 Mahoney
[7] = system: Mus musculus; test: Toxicity in BDF1 mouse allografted with mouse L1210 cells assessed as survival at 200 mg/kg, ip administered 24 hrs post-implantation after 30 days; format: organism-based; design: dose 200 mg/kg, route intraperitoneal; conditions: in vivo, 720 h
[8] = system: L1210; test: Antitumor activity against mouse L1210 cells allografted in BDF1 mouse assessed as increase in life span at 50 mg/kg, ip administered 24 hrs post-implantation measured up to 30 days relative to control; format: functional; conditions: route intraperitoneal
[9] = system: Measles morbillivirus; test: Antiviral activity against Measles virus infected in African green monkey BGM cells after 5 days by pulp disk diffusion assay; format: functional, organism-based
[10] = system: Mus musculus; test: Toxicity in BDF1 mouse allografted with mouse L1210 cells at 50 mg/kg, ip administered 24 hrs post-implantation measured up to 30 days; format: organism-based; design: dose 50 mg/kg, route intraperitoneal; conditions: in vivo
[11] = system: Mus musculus; test: Toxicity in BDF1 mouse allografted with mouse L1210 cells assessed as reduction in average life span at 200 mg/kg, ip administered 24 hrs post-implantation measured up to 30 days relative to control; format: organism-based; design: dose 200 mg/kg, route intraperitoneal; scale not given: the % may be the effect or the level left; conditions: in vivo
[12] = system: L1210; test: Antitumor activity against mouse L1210 cells allografted in BDF1 mouse assessed as survival at 50 mg/kg, ip administered 24 hrs post-implantation after 30 days; format: functional, organism-based; design: dose 50 mg/kg
[13] = system: Mus musculus; test: Toxicity in BDF1 mouse allografted with mouse L1210 cells assessed as survival at 1000 mg/kg, ip administered 24 hrs post-implantation after 30 days; format: organism-based; design: dose 1000 mg/kg, route intraperitoneal; conditions: in vivo, 720 h
[14] = system: L1210; test: Antitumor activity against mouse L1210 cells allografted in BDF1 mouse assessed as increase in life span at 200 mg/kg, ip administered 24 hrs post-implantation measured up to 30 days relative to control; format: functional; conditions: route intraperitoneal
[15] = system: Mus musculus; test: Toxicity in BDF1 mouse allografted with mouse L1210 cells assessed as reduction in average life span at 500 mg/kg, ip administered 24 hrs post-implantation measured up to 30 days relative to control; format: organism-based; design: dose 500 mg/kg, route intraperitoneal; scale not given: the % may be the effect or the level left; conditions: in vivo
[16] = system: Mus musculus; test: Toxicity in BDF1 mouse allografted with mouse L1210 cells assessed as survival at 500 mg/kg, ip administered 24 hrs post-implantation after 30 days; format: organism-based; design: dose 500 mg/kg, route intraperitoneal; conditions: in vivo, 720 h
[17] = system: L1210; test: Antitumor activity against mouse L1210 cells allografted in BDF1 mouse assessed as survival at 200 mg/kg, ip administered 24 hrs post-implantation after 30 days; format: functional, organism-based; design: dose 200 mg/kg
[18] = system: Mus musculus; test: Toxicity in BDF1 mouse allografted with mouse L1210 cells assessed as reduction in average life span at 1000 mg/kg, ip administered 24 hrs post-implantation measured up to 30 days relative to control; format: organism-based; design: dose 1000 mg/kg, route intraperitoneal; scale not given: the % may be the effect or the level left; conditions: in vivo
[19] = system: L1210; test: Antitumor activity against mouse L1210 cells allografted in BDF1 mouse assessed as increase in life span at 1000 mg/kg, ip administered 24 hrs post-implantation measured up to 30 days relative to control; format: functional; conditions: route intraperitoneal
[20] = system: Mus musculus; test: Toxicity in BDF1 mouse allografted with mouse L1210 cells at 50 to 1000 mg/kg, ip administered 24 hrs post-implantation measured up to 30 days; format: organism-based; design: dose 50-1000 mg/kg, route intraperitoneal; conditions: in vivo
[21] = system: L1210; test: Antitumor activity against mouse L1210 cells allografted in BDF1 mouse assessed as increase in life span at 500 mg/kg, ip administered 24 hrs post-implantation measured up to 30 days relative to control; format: functional; conditions: route intraperitoneal
[22] = system: L1210; test: Antitumor activity against mouse L1210 cells allografted in BDF1 mouse assessed as survival at 500 mg/kg, ip administered 24 hrs post-implantation after 30 days; format: functional, organism-based; design: dose 500 mg/kg
[23] = system: L1210; test: Antitumor activity against mouse L1210 cells allografted in BDF1 mouse assessed as survival at 1000 mg/kg, ip administered 24 hrs post-implantation after 30 days; format: functional, organism-based; design: dose 1000 mg/kg

## C/C=C/C=C/C(=O)OC[C@H]1O[C@@H]2[C@@H](Oc3nc(=N)ccn32)[C@@H]1OC(=O)/C=C/C=C/C.Cl
[1]
  Activity: inactive
[2]
  Activity: inactive
[3]
  EC50: 5.8 µM
[4]
  EC50: > 10 µM
[5]
  EC50: 0.1 µg/mL
[6]
  Activity: inactive
[7]
  Activity: Toxic
[8]
  ILS at 50 mg/kg: 1%
[9]
  Activity: inactive
[10]
  Activity: Non-toxic
[11]
  Activity: 100%
[12]
  Activity: inactive

## CCCCCCCC/C=C\CCCCCCCC(=O)OC[C@H]1O[C@@H]2[C@@H](Oc3nc(=N)ccn32)[C@@H]1OC(=O)CCCCCCC/C=C\CCCCCCCC.Cl
[13]
  Activity: Toxic
[14]
  ILS at 200 mg/kg: > 257%
[1]
  Activity: inactive
[15]
  Activity: 23%
[2]
  Activity: inactive
[16]
  Activity: Toxic
[3]
  EC50: 3.2 µM
[4]
  EC50: 8.5 µM
[5]
  EC50: 0.3 µg/mL
[6]
  Activity: inactive
[17]
  Activity: Active
[8]
  ILS at 50 mg/kg: > 141%
[18]
  Activity: 31%
[9]
  Activity: inactive

## CCCCCCCC/C=C\CCCCCCCCCCCC(=O)OC[C@H]1O[C@@H]2[C@@H](Oc3nc(=N)ccn32)[C@@H]1OC(=O)CCCCCCCCCCC/C=C\CCCCCCCC.Cl
[14]
  ILS at 200 mg/kg: > 267%
[19]
  ILS at 1000 mg/kg: > 257%
[20]
  Activity: Non-toxic
[1]
  Activity: inactive
[2]
  Activity: inactive
[3]
  EC50: > 30 µM
[4]
  EC50: > 30 µM
[5]
  EC50: 4 µg/mL
[6]
  Activity: inactive
[21]
  ILS at 500 mg/kg: > 257%
[8]
  ILS at 50 mg/kg: > 202%
[22]
  Activity: Active
[9]
  Activity: inactive
[23]
  Activity: Active

## CCCCCC(=O)OC[C@H]1O[C@@H]2[C@@H](Oc3nc(=N)ccn32)[C@@H]1OC(=O)CCCCC.Cl
[13]
  Activity: Toxic
[1]
  Activity: inactive
[15]
  Activity: 86%
[2]
  Activity: inactive
[16]
  Activity: Toxic
[3]
  EC50: 0.27 µM
[4]
  EC50: 1 µM
[5]
  EC50: 0.11 µg/mL
[6]
  Activity: inactive
[7]
  Activity: Toxic
[8]
  ILS at 50 mg/kg: 26%
[18]
  Activity: 100%
[9]
  Activity: inactive
[11]
  Activity: 61%
[12]
  Activity: inactive

## C=CCCCCCCCCC(=O)OC[C@H]1O[C@@H]2[C@@H](Oc3nc(=N)ccn32)[C@@H]1OC(=O)CCCCCCCCC=C.Cl
[1]
  Activity: inactive
[2]
  Activity: inactive
[3]
  EC50: 0.44 µM
[4]
  EC50: 0.78 µM
[5]
  EC50: 0.1 µg/mL
[6]
  Activity: inactive
[7]
  Activity: Toxic
[8]
  ILS at 50 mg/kg: 24%
[9]
  Activity: inactive
[10]
  Activity: Non-toxic
[11]
  Activity: 74%
[12]
  Activity: inactive
